Source: patent publication US20060025434A1, “Therapeutic agents for drug/substance dependence” (Toray Industries, Inc., priority 2003, published 2006)

Tested on: SD male rats
Assay: Conditioned place preference (CPP) test: recovery after acquisition of methamphetamine-induced psychological dependence
Type: in vivo
Conditions: 0.3 mg/kg subcutaneous twice per day, after methamphetamine (2.0 mg/kg s.c.) conditioning
Description: Effect of Compound 1 in Promoting the Recovery Process after Acquisition of Psychological Dependence by a Stimulant Drug (Therapeutic Effect for Stimulant Drug Dependence)
The effect of compound 1 in promoting recovery during the convalescence after the acquisition of psychological dependence by a stimulant drug was discussed using the conditioned place preference method (Suzuki, T., et al., Psychopharmacology, 102, 438, 1990; Spyraki, C., The Psychopharmacology of Addiction, p. 96, Oxford Medical Publication, New York, 1988; hereinafter called “CPP method”). As a stimulant drug forming psychological dependence, methamphetamine hydrochloride was used. Furthermore, as a therapeutic agent for drug dependence, compound 1 was used.
For the experiment, SD male rats were used. The experimental apparatus used was a CPP apparatus having two compartments (one black, the other white). In the experiment, at first, the rats were trained for being conditioned with the sensory effect of the drug and the environments (white and black) in the apparatus for 6 days. The conditioned rats were placed and tested in the apparatus without drug administration. The drug dependence was evaluated with the residence time of the rats in the white and black boxes in the test session, as an indicator, in reference to whether the rats preferred the drug-induced sensory effect. […]

## Oc1ccc2c3c1O[C@H]1c4c(c5cc(F)cc6c5n4CCC6)C[C@@]4(O)[C@@H](C2)N(CC2CC2)CC[C@]314 [Compound 1]
7th day after start of administration, significance level 5% or less vs solvent
  recovery from the state of stimulant drug dependence (CPP residence time): significant recovery
From the 4th day after start of administration
  recovery from the state of stimulant drug dependence (CPP residence time): apparent recovery
